Experimental findings from patent US9815796B2 (Merck Sharp & Dohme Corp., priority 2013, dated 2017) are described below.

This assay deals with Rhesus PDE2A3 (Macaca mulatta, UniProt B3VTJ2). Put plainly: PDE2 fluorescence polarization (IMAP FP) inhibition assay, rhesus enzyme. The assay is classed as biochemical, rhesus macaque. The procedure, abridged: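 Rhesus PDE2A3 came from lysate of transiently transfected AD293 cells, diluted to give 20% substrate conversion. Substrate was 50 nM FAM-cAMP with 1 uM cGMP activator in Tris pH 7.2/MgCl2 buffer, run 60 min at room temperature over 10-point 3-fold dilutions in 1% DMSO. Read-out was IMAP fluorescence polarization (mP) after ≥1 h binding.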
Chain of Rhesus PDE2A3 (B3VTJ2 1-941): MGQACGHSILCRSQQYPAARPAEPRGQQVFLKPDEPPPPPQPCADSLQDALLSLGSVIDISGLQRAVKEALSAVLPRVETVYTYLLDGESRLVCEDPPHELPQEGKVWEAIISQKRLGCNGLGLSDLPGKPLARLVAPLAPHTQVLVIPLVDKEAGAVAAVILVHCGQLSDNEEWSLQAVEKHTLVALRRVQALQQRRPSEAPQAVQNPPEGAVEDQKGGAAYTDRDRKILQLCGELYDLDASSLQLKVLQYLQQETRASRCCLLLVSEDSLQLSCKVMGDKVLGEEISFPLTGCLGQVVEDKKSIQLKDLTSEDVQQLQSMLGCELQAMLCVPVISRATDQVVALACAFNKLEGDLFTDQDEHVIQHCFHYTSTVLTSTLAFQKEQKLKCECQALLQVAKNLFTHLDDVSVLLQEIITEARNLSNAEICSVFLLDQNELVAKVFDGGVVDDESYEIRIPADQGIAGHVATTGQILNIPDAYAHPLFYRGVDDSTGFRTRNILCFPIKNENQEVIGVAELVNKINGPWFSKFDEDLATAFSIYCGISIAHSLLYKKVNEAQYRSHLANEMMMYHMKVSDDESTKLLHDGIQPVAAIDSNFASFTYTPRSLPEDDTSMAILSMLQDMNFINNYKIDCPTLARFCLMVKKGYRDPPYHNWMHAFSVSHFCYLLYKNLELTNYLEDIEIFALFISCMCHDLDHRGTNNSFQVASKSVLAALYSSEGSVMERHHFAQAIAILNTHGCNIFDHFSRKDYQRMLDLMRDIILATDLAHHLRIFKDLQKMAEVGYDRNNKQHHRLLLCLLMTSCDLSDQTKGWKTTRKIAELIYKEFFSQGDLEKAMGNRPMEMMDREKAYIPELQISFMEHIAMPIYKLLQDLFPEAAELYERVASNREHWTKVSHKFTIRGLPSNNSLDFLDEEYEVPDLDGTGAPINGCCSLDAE
A general note: In fluorescence polarisation assays a small probe gives low polarisation when free and higher when bound to something large.

Setting [1] is: Rhesus PDE2, Lab A, read-out: Rhesus PDE2 Ki (nM) - Lab A.
Where [2] appears, read: Rhesus PDE2, Lab B, read-out: Rhesus PDE2 Ki (nM) - Lab B.

Structures are written as SMILES. Read-outs that look alike come from different tables or passages of the source.

In general, Ki refers to a dissociation constant, usually derived from enzyme kinetics or from competition with a known ligand. In the case of `O=C(NC(c1ccccc1)c1ccc(C(F)(F)F)cc1)c1cc(=O)[nH]c(-c2ccccc2)n1` (centres unmarked) [Example 162, 6-oxo-2-phenyl-N-{phenyl[4-(trifluoromethyl)phenyl]methyl}-1,6-dihydropyrimidine-4-carboxamide], the “Rhesus PDE2 % inh. at 1 uM - Lab A” value (Rhesus PDE2, Lab A) came out at 45 % inh. In addition, the Ki was > 1000 nM under setting [1] and 1000 nM under setting [2].
Consider `COc1ccc(C(NC(=O)c2cc(=O)[nH]c(C3CC3)n2)c2ccc(C(F)(F)F)cc2)cc1` (centres unmarked) [Example 205, 2-cyclopropyl-N-{(4-methoxyphenyl)[4-(trifluoromethyl)phenyl]methyl}-6-oxo-1,6-dihydropyrimidine-4-carboxamide], for which the Ki under setting [1] came out at 694 nM.
Consider `Cc1nc(C(=O)NC(C)(C)c2ccc(S(F)(F)(F)(F)F)cc2)cc(=O)[nH]1` [Example 677, 2-methyl-N-{1-methyl-1-[4-(pentafluoro-λ^6-sulfanyl)phenyl]ethyl}-6-oxo-1,6-dihydropyrimidine-4-carboxamide], for which the inhibition constant Ki under setting [2] was determined as 129 nM.
On to `COc1cc(C(F)(F)F)ccc1[C@H](C)NC(=O)c1cc(=O)[nH]c(C2CC2)n1` [Example 223, 2-cyclopropyl-N-{(1S)-1-[2-methoxy-4-(trifluoromethyl)phenyl]ethyl}-6-oxo-1,6-dihydropyrimidine-4-carboxamide], for which the inhibition constant (Ki) under setting [1] came out at 1020 nM.
The same measure, in the same setting: next, `CC(NC(=O)c1cc(=O)[nH]c(-c2ccccc2)n1)c1ncc(C(F)(F)F)cn1` (centres unmarked) [Example 170, 6-oxo-2-phenyl-N-{1-[5-(trifluoromethyl)pyrimidin-2-yl]ethyl}-1,6-dihydropyrimidine-4-carboxamide]: 2340 nM.
On to `COc1cc(C(F)(F)F)ccc1[C@H](C)NC(=O)c1cc(=O)[nH]c(-c2ccccc2)n1` [Example 403, N-{(1S)-1-[2-methoxy-4-(trifluoromethyl)phenyl]ethyl}-6-oxo-2-phenyl-1,6-dihydropyrimidine-4-carboxamide], for which, under setting [2], the Ki stood at 1910 nM.
In the case of `CC(NC(=O)c1cc(=O)[nH]c(-c2ncccn2)n1)c1ccc(C(F)(F)F)cc1Cl` (centres unmarked) [Example 96, N-{1-[2-chloro-4-(trifluoromethyl)phenyl]ethyl}-6-oxo-1,6-dihydro-2,2′-bipyrimidine-4-carboxamide], under setting [1], the inhibitory constant (Ki) came to 1280 nM.
Regarding `C[C@@H](NC(=O)c1cc(=O)[nH]c(-c2nccs2)n1)c1ccc(C(F)(F)F)cc1` [Example 674, (R)-6-oxo-2-(thiazol-2-yl)-N-(1-(4-(trifluoromethyl)phenyl)ethyl)-1,6-dihydropyrimidine-4-carboxamide], under setting [2], the Ki came to 583 nM.
On to `O=C(c1cc(=O)[nH]c(-c2ccccc2)n1)N1CCCCC1c1ccc(C(F)(F)F)cc1` (centres unmarked) [Example 346, 2-phenyl-6-({2-[4-(trifluoromethyl)phenyl]piperidin-1-yl}carbonyl)pyrimidin-4(3H)-one], for which the Ki under setting [1] is 2350 nM.
The same measure, in the same setting: next, `COc1ccc([C@@H](C)NC(=O)c2cc(=O)[nH]c(-c3ncccn3)n2)c(OC)c1` [Example 88, N-[(1R)-1-(2,4-dimethoxyphenyl)ethyl]-6-oxo-1,6-dihydro-2,2′-bipyrimidine-4-carboxamide]: 2360 nM.
Regarding `Cc1nc(C(=O)NC(C)c2ccc(C(C)(C)C(F)(F)F)cc2)cc(=O)[nH]1` (single isomer, unassigned) [Example 695, (R)- or (S)-2-methyl-6-oxo-N-(1-(4-(1,1,1-trifluoro-2-methylpropan-2-yl)phenyl)ethyl)-1,6-dihydropyrimidine-4-carboxamide], the inhibition constant (Ki) under setting [2] is 473 nM.
With `O=C(NC(c1ccccc1)c1ccc(C(F)(F)F)cc1)c1cc(=O)[nH]c(C2CC2)n1` (centres unmarked) [Example 196, 2-cyclopropyl-6-oxo-N-{phenyl[4-(trifluoromethyl)phenyl]methyl}-1,6-dihydropyrimidine-4-carboxamide], under setting [1], the Ki amounted to 915 nM.
`Cc1cc(C(F)(F)F)ccc1C(C)NC(=O)c1cc(=O)[nH]c(-c2ncccn2)n1` (centres unmarked) [Example 90, N-{1-[2-methyl-4-(trifluoromethyl)phenyl]ethyl}-6-oxo-1,6-dihydro-2,2′-bipyrimidine-4-carboxamide]: the Ki under setting [1] worked out at 732 nM.
The same measure, in the same setting: next, `O=C(N[C@@H](c1ccc(C(F)(F)F)cc1)C1CC1)c1cc(=O)[nH]c(-c2ncccn2)n1` [Example 94, N-{(R)-cyclopropyl[4-(trifluoromethyl)phenyl]methyl}-6-oxo-1,6-dihydro-2,2′-bipyrimidine-4-carboxamide]: 20 nM.
On to `CC(NC(=O)c1cc(=O)[nH]c(-c2ccccc2)n1)c1ccc(F)cc1` (centres unmarked) [Example 343, N-[1-(4-fluorophenyl)ethyl]-6-oxo-2-phenyl-1,6-dihydropyrimidine-4-carboxamide], for which the Ki was ~601 nM under setting [1] and 682 nM under setting [2].
As to `COc1ccc([C@H](C)NC(=O)c2cc(=O)[nH]c(-c3ccccc3)n2)cc1` [Example 357, N-[(1S)-1-(4-methoxyphenyl)ethyl]-6-oxo-2-phenyl-1,6-dihydropyrimidine-4-carboxamide], the inhibitory constant (Ki) under setting [2] was ~11300 nM.
For the compound `Cc1nc(C(=O)NC(C)c2ccc(-c3ccccc3)cc2)cc(=O)[nH]1` (single isomer, unassigned) [Example 308, (S)- or (R)-N-(1-biphenyl-4-ylethyl)-2-methyl-6-oxo-1,6-dihydropyrimidine-4-carboxamide], the Ki under setting [1] was found to be 2500 nM.
With `Cc1nc(C(=O)N[C@@H](c2ccc(C(F)(F)F)cc2)[C@H](C)O)cc(=O)[nH]1` [Example 64, N-((1S,2S)-2-hydroxy-1-(4-(trifluoromethyl)phenyl)propyl)-2-methyl-6-oxo-1,6-dihydropyrimidine-4-carboxamide], under setting [1], the Ki is ~39300 nM.
On the same count and under the same terms, next, `Cc1cc(C(F)(F)F)ccc1CNC(=O)c1cc(=O)[nH]c(-c2ccccc2)n1` [Example 180, N-[2-methyl-4-(trifluoromethyl)benzyl]-6-oxo-2-phenyl-1,6-dihydropyrimidine-4-carboxamide]: 2050 nM.
For the compound `CC(C)(NC(=O)c1cc(=O)[nH]c(-c2ccccc2)n1)c1ccc(F)c(F)c1` [Example 344, N-[1-(3,4-difluorophenyl)-1-methylethyl]-6-oxo-2-phenyl-1,6-dihydropyrimidine-4-carboxamide], the inhibition constant (Ki) under setting [1] was ~449 nM and the Ki under setting [2] was 681 nM.
`Cc1nc(C(=O)N[C@H](c2ccc(C(F)(F)F)cc2)C(C)C)cc(=O)[nH]1` [Example 315, 2-methyl-N-{(1S)-2-methyl-1-[4-(trifluoromethyl)phenyl]propyl}-6-oxo-1,6-dihydropyrimidine-4-carboxamide]: the Ki under setting [1] worked out at 698 nM.
Consider `COc1ccc(C(C)(C)c2nc(C(=O)N[C@@H](c3ccc(SC(F)(F)F)cc3)C(C)(C)C)cc(=O)[nH]2)cc1` [Example 488, N-[(1R)-2,2-dimethyl-1-{4-[(trifluoromethyl)sulfanyl]phenyl}propyl]-2-[1-(4-methoxyphenyl)-1-methylethyl]-6-oxo-1,6-dihydropyrimidine-4-carboxamide], for which the Ki under setting [2] was found to be 116 nM.
Still for that read-out and setting: the figure for `CCOC(=O)c1ccc([C@@H](C)NC(=O)c2cc(=O)[nH]c(-c3ccccc3)n2)cc1` [Example 355, ethyl 4-[(1R)-1-{[(6-oxo-2-phenyl-1,6-dihydropyrimidin-4-yl)carbonyl]amino}ethyl]benzoate] is ~29200 nM; for `Cc1nc(C(=O)NC(c2ccc(SC(F)(F)F)cc2)C(C)C)cc(=O)[nH]1` (stereo in doubt) [Example 615, 2-methyl-N-[(1S)-2-methyl-1-{4-[(trifluoromethyl)sulfanyl]phenyl}propyl]-6-oxo-1,6-dihydropyrimidine-4-carboxamide] it is 441 nM.
With `O=C(NCc1ccc(C(F)(F)F)cc1Cl)c1cc(=O)[nH]c(-c2ccccc2)n1` [Example 181, N-[2-chloro-4-(trifluoromethyl)benzyl]-6-oxo-2-phenyl-1,6-dihydropyrimidine-4-carboxamide], under setting [1], the Ki is 485 nM.
Turning to `C[C@H](NC(=O)c1cc(=O)[nH]c(-c2ccccc2)n1)c1cccc2ccccc12` [Example 362, N-[(1S)-1-naphthalen-1-ylethyl]-6-oxo-2-phenyl-1,6-dihydropyrimidine-4-carboxamide], the Ki under setting [2] is ~24700 nM.
In the case of `CC(C)(NC(=O)c1cc(=O)[nH]c(-c2ncccn2)n1)c1ccc(OC(F)(F)F)cc1` [Example 289, N-{1-methyl-1-[4-(trifluoromethoxy)phenyl]ethyl}-6-oxo-1,6-dihydro-2,2′-bipyrimidine-4-carboxamide], the inhibition constant Ki under setting [1] is 2320 nM.
The same measure, in the same setting: the figure for `COc1ccc([C@@H](C)NC(=O)c2cc(=O)[nH]c(C3CC3)n2)cc1` [Example 216, 2-cyclopropyl-N-[(1R)-1-(4-methoxyphenyl)ethyl]-6-oxo-1,6-dihydropyrimidine-4-carboxamide] is 247 nM.
On to `C[C@H](O)[C@@H](NC(=O)c1cc(=O)[nH]c(-c2ncccn2)n1)c1ccc(C(F)(F)F)cc1` [Example 430, N-{(1S,2)S-2-hydroxy-1-[4-(trifluoromethyl)phenyl]propyl}-6-oxo-1,6-dihydro-2,2′-bipyrimidine-4-carboxamide], for which the inhibitory constant (Ki) under setting [2] is > 2970 nM.
Take `C[C@@H](NC(=O)c1cc(=O)[nH]c(-c2ccccc2)n1)c1ccc(C(F)(F)F)c2ccccc12` [Example 153]: the “Rhesus PDE2 % inh. at 1 uM - Lab A” value (Rhesus PDE2, Lab A) came out at 41 % inh. The Ki under setting [1] was > 1000 nM and the inhibitory constant (Ki) under setting [2] is ~1970 nM.
As for `COCc1nc(C(=O)NC(CO)c2ccc(C(F)(F)F)cc2)cc(=O)[nH]1` (centres unmarked) [Example 112, N-{2-hydroxy-1-[4-(trifluoromethyl)phenyl]ethyl}-2-(methoxymethyl)-6-oxo-1,6-dihydropyrimidine-4-carboxamide], the inhibitory constant (Ki) under setting [1] came to 1110 nM.
Turning to `COc1ccc(C(C)(C)c2nc(C(=O)N[C@@H](c3ccc(C(F)(F)F)cc3)C(C)(C)C)cc(=O)[nH]2)cc1` [Example 456, N-{(1R)-2,2-dimethyl-1-[4-(trifluoromethyl)phenyl]propyl}-2-[1-(4-methoxyphenyl)-1-methylethyl]-6-oxo-1,6-dihydropyrimidine-4-carboxamide], under setting [2], the inhibitory constant (Ki) stood at 98 nM.
